Oligonucleotides are written 5' to 3', each unit as a sugar letter and its base; * is a phosphorothioate linkage, no mark a phosphodiester; rarer units and linkages stand in square brackets, end groups in braces. Plain capitals give the bases only. e = 2'-O-(2-methoxyethyl) (MOE); [5mC] = 5-methylcytosine; d = 2'-deoxy (DNA)
system: mouse glucose-6-phosphatase translocase mRNA; experiment: Antisense inhibition of mouse glucose-6-phosphatase translocase mRNA in primary mouse hepatocytes, 50 nM (Table 5); assay type: cell-based; settings: 50 nM oligonucleotide, mRNA by real-time PCR, normalized with RIBOGREEN
Protocol: Primary mouse hepatocytes were prepared from CD-1 mice purchased from Charles River Labs. Primary mouse hepatocytes were routinely cultured in Hepatocyte Attachment Media supplemented with 10% fetal bovine serum (Invitrogen Life Technologies, Carlsbad, Calif.), 250 nM dexamethasone, and 10 nM bovine insulin (Sigma-Aldrich, St. Louis, Mo.). Cells were seeded into 96-well plates (Falcon-Primaria #353872, BD Biosciences, Bedford, Mass.) at a density of approximately 4,000-6,000 cells/well for use in oligomeric compound transfection experiments.
Quantitation of glucose 6-phosphatase translocase mRNA levels was accomplished by real-time quantitative PCR using the ABI PRISM™ 7600, 7700, or 7900 Sequence Detection System (PE-Applied Biosystems, Foster City, Calif.) according to manufacturer's instructions.
Prior to quantitative PCR analysis, primer-probe sets specific to the target gene being measured were evaluated for their ability to be “multiplexed” with a GAPDH amplification reaction. After isolation the RNA is subjected to sequential reverse transcriptase (RT) reaction and real-time PCR, both of which are performed in the same well. RT and PCR reagents were obtained from Invitrogen Life Technologies (Carlsbad, Calif.). […] The RT reaction was carried out by incubation for 30 minutes at 48° C. Following a 10 minute incubation at 95° C. to activate the PLATINUM® Taq, 40 cycles of a two-step PCR protocol were carried out: 95° C. for 15 seconds (denaturation) followed by 60° C. for 1.5 minutes (annealing/extension).
Gene target quantities obtained by RT, real-time PCR were normalized using either the expression level of GAPDH, a gene whose expression is constant, or by quantifying total RNA using RiboGreen™ (Molecular Probes, Inc. Eugene, Oreg.). GAPDH expression was quantified by RT, real-time PCR, by being run simultaneously with the target, multiplexing, or separately. Total RNA was quantified using RiboGreen™ RNA quantification reagent (Molecular Probes, Inc. Eugene, Oreg.).
A series of oligomeric compounds was designed to target different regions of mouse glucose-6-phosphatase translocase, using published sequences cited in Table 1. All compounds in Table 5 are chimeric oligonucleotides (“gapmers”) 20 nucleotides in length, composed of a central “gap” region consisting of 10 2′-deoxynucleotides, which is flanked on both sides (5′ and 3′) by five-nucleotide “wings”. The wings are composed of 2′-O-(2-methoxyethyl) nucleotides, also known as 2′-MOE nucleotides. The internucleoside (backbone) linkages are phosphorothioate throughout the oligonucleotide. All cytidine residues are 5-methylcytidines. The compounds were analyzed for their effect on gene target mRNA levels by quantitative real-time PCR as described in other examples herein, using the following primer-probe set designed to hybridize to mouse glucose-6-phosphatase translocase: • forward primer: […] (SEQ ID NO: 66) • reverse primer: CCATCCCAGCCATCATGAG (SEQ ID NO: 67) and the PCR probe was: FAM-[…]-TAMRA (SEQ ID NO: 68) where FAM is the fluorescent reporter dye and TAMRA is the quencher dye. Mouse target gene quantities were normalized by quantifying total RNA using RIBOGREEN™.
Data are from experiments in which primary mouse hepatocytes were treated with 50 nM of the antisense oligonucleotides of the present invention. A reduction in expression is expressed as percent inhibition in Table 5. If present, “N.D.” indicates “not determined”. The target regions to which these oligomeric compounds are inhibitory are herein referred to as “validated target segments.”

Row | Sequence | % Inhib [%]
1 | CGCCATGGCCCTGTCTGACA (e[5mC]*eG*e[5mC]*e[5mC]*eA*dT*dG*dG*d[5mC]*d[5mC]*d[5mC]*dT*dG*dT*d[5mC]*eT*eG*eA*e[5mC]*eA; antisense) [ISIS 148969] | 24
2 | CGTCATCATTTTAAATAGAG (e[5mC]*eG*eT*e[5mC]*eA*dT*d[5mC]*dA*dT*dT*dT*dT*dA*dA*dA*eT*eA*eG*eA*eG; antisense) [ISIS 148994] | 10
3 | CTGATGGCGTAGGCTGCCGA (e[5mC]*eT*eG*eA*eT*dG*dG*d[5mC]*dG*dT*dA*dG*dG*d[5mC]*dT*eG*e[5mC]*e[5mC]*eG*eA; antisense) [ISIS 148950] | 0
4 | CTGCTGGCCCACTCCAGTAC (e[5mC]*eT*eG*e[5mC]*eT*dG*dG*d[5mC]*d[5mC]*d[5mC]*dA*d[5mC]*dT*d[5mC]*d[5mC]*eA*eG*eT*eA*e[5mC]; antisense) [ISIS 148940] | 61
5 | CTTGTCCAGAGCGATCTCAT (e[5mC]*eT*eT*eG*eT*d[5mC]*d[5mC]*dA*dG*dA*dG*d[5mC]*dG*dA*dT*e[5mC]*eT*e[5mC]*eA*eT; antisense) [ISIS 148945] | 35
6 | CTTTCCGTGTCCTGCCAGTA (e[5mC]*eT*eT*eT*e[5mC]*d[5mC]*dG*dT*dG*dT*d[5mC]*d[5mC]*dT*dG*d[5mC]*e[5mC]*eA*eG*eT*eA; antisense) [ISIS 148987] | 45
7 | GAAGGGTATAGGAGACACCC (eG*eA*eA*eG*eG*dG*dT*dA*dT*dA*dG*dG*dA*dG*dA*e[5mC]*eA*e[5mC]*e[5mC]*e[5mC]; antisense) [ISIS 148997] | 57
8 | GACTGCTCCTGCTTGCAGCT (eG*eA*e[5mC]*eT*eG*d[5mC]*dT*d[5mC]*d[5mC]*dT*dG*d[5mC]*dT*dT*dG*e[5mC]*eA*eG*e[5mC]*eT; antisense) [ISIS 148938] | 50
9 | GAGCCCCAAATCGTCCTTGT (eG*eA*eG*e[5mC]*e[5mC]*d[5mC]*d[5mC]*dA*dA*dA*dT*d[5mC]*dG*dT*d[5mC]*e[5mC]*eT*eT*eG*eT; antisense) [ISIS 148947] | 37
10 | GAGCTACCCACAAGGGCGGA (eG*eA*eG*e[5mC]*eT*dA*d[5mC]*d[5mC]*d[5mC]*dA*d[5mC]*dA*dA*dG*dG*eG*e[5mC]*eG*eG*eA; antisense) [ISIS 148965] | 16
11 | GAGGTTCCACACAAGTTGGG (eG*eA*eG*eG*eT*dT*d[5mC]*d[5mC]*dA*d[5mC]*dA*d[5mC]*dA*dA*dG*eT*eT*eG*eG*eG; antisense) [ISIS 148978] | 34
12 | GCAGCCGCTCTCCTTTCCGT (eG*e[5mC]*eA*eG*e[5mC]*d[5mC]*dG*d[5mC]*dT*d[5mC]*dT*d[5mC]*d[5mC]*dT*dT*eT*e[5mC]*e[5mC]*eG*eT; antisense) [ISIS 148988] | 73
13 | GCCAGTGTGCTGCGCCAGCT (eG*e[5mC]*e[5mC]*eA*eG*dT*dG*dT*dG*d[5mC]*dT*dG*d[5mC]*dG*d[5mC]*e[5mC]*eA*eG*e[5mC]*eT; antisense) [ISIS 148957] | 57
14 | GCCCCAGTCTGTACAGCAAG (eG*e[5mC]*e[5mC]*e[5mC]*e[5mC]*dA*dG*dT*d[5mC]*dT*dG*dT*dA*d[5mC]*dA*eG*e[5mC]*eA*eA*eG; antisense) [ISIS 148963] | 55
15 | GCCGCAAATATGACAGTGCG (eG*e[5mC]*e[5mC]*eG*e[5mC]*dA*dA*dA*dT*dA*dT*dG*dA*d[5mC]*dA*eG*eT*eG*e[5mC]*eG; antisense) [ISIS 148942] | 17
16 | GCTCACAAACTTGCTGATGG (eG*e[5mC]*eT*e[5mC]*eA*d[5mC]*dA*dA*dA*d[5mC]*dT*dT*dG*d[5mC]*dT*eG*eA*eT*eG*eG; antisense) [ISIS 148951] | 57
17 | GCTGAAGGGTAAGCCAGCCA (eG*e[5mC]*eT*eG*eA*dA*dG*dG*dG*dT*dA*dA*dG*d[5mC]*d[5mC]*eA*eG*e[5mC]*e[5mC]*eA; antisense) [ISIS 148980] | 43

Row | Sequence | % Inhib [%]
18 | GCTTTATTCGATCTATACAA (eG*e[5mC]*eT*eT*eT*dA*dT*dT*d[5mC]*dG*dA*dT*d[5mC]*dT*dA*eT*eA*e[5mC]*eA*eA; antisense) [ISIS 149009] | 5
19 | GGATATTTCGAAGCAAGAAG (eG*eG*eA*eT*eA*dT*dT*dT*d[5mC]*dG*dA*dA*dG*d[5mC]*dA*eA*eG*eA*eA*eG; antisense) [ISIS 148983] | 43
20 | GGCACTGATGTAGGAGCTAC (eG*eG*e[5mC]*eA*e[5mC]*dT*dG*dA*dT*dG*dT*dA*dG*dG*dA*eG*e[5mC]*eT*eA*e[5mC]; antisense) [ISIS 148966] | 54
21 | GGCAGAAACCACAGGCCATT (eG*eG*e[5mC]*eA*eG*dA*dA*dA*d[5mC]*d[5mC]*dA*d[5mC]*dA*dG*dG*e[5mC]*e[5mC]*eA*eT*eT; antisense) [ISIS 149000] | 56
22 | GGCTGCTTGTGATGAGCCCC (eG*eG*e[5mC]*eT*eG*d[5mC]*dT*dT*dG*dT*dG*dA*dT*dG*dA*eG*e[5mC]*e[5mC]*e[5mC]*e[5mC]; antisense) [ISIS 148949] | 52
23 | GGGACCTCATTAGCCACTGG (eG*eG*eG*eA*e[5mC]*d[5mC]*dT*d[5mC]*dA*dT*dT*dA*dG*d[5mC]*d[5mC]*eA*e[5mC]*eT*eG*eG; antisense) [ISIS 148993] | 55
24 | GGGACTGAGGTATTGGCATC (eG*eG*eG*eA*e[5mC]*dT*dG*dA*dG*dG*dT*dA*dT*dT*dG*eG*e[5mC]*eA*eT*e[5mC]; antisense) [ISIS 149003] | 9
25 | GGGTACGGCAGAAACCACAG (eG*eG*eG*eT*eA*d[5mC]*dG*dG*d[5mC]*dA*dG*dA*dA*dA*d[5mC]*e[5mC]*eA*e[5mC]*eA*eG; antisense) [ISIS 149001] | 42
26 | GTGATGAGCCCCAAATCGTC (eG*eT*eG*eA*eT*dG*dA*dG*d[5mC]*d[5mC]*d[5mC]*d[5mC]*dA*dA*dA*eT*e[5mC]*eG*eT*e[5mC]; antisense) [ISIS 148948] | 52
27 | GTGGAGACACAGAAACGTAA (eG*eT*eG*eG*eA*dG*dA*d[5mC]*dA*d[5mC]*dA*dG*dA*dA*dA*e[5mC]*eG*eT*eA*eA; antisense) [ISIS 148992] | 51
28 | TACAGCAAGTCTTTACTCCG (eT*eA*e[5mC]*eA*eG*d[5mC]*dA*dA*dG*dT*d[5mC]*dT*dT*dT*dA*e[5mC]*eT*e[5mC]*e[5mC]*eG; antisense) [ISIS 148962] | 47
29 | TACTCGGAAGAGATACGTGG (eT*eA*e[5mC]*eT*e[5mC]*dG*dG*dA*dA*dG*dA*dG*dA*dT*dA*e[5mC]*eG*eT*eG*eG; antisense) [ISIS 148974] | 8
30 | TATAGGAGACACCCTGAATT (eT*eA*eT*eA*eG*dG*dA*dG*dA*d[5mC]*dA*d[5mC]*d[5mC]*d[5mC]*dT*eG*eA*eA*eT*eT; antisense) [ISIS 148996] | −3
31 | TATTGGCATCAATTTTGCCC (eT*eA*eT*eT*eG*dG*d[5mC]*dA*dT*d[5mC]*dA*dA*dT*dT*dT*eT*eG*e[5mC]*e[5mC]*e[5mC]; antisense) [ISIS 149002] | 22
32 | TCACTCTCCCTTCTTGGATA (eT*e[5mC]*eA*e[5mC]*eT*d[5mC]*dT*d[5mC]*d[5mC]*d[5mC]*dT*dT*d[5mC]*dT*dT*eG*eG*eA*eT*eA; antisense) [ISIS 148984] | 60
33 | TCATGAGAGTGGTGGACTCC (eT*e[5mC]*eA*eT*eG*dA*dG*dA*dG*dT*dG*dG*dT*dG*dG*eA*e[5mC]*eT*e[5mC]*e[5mC]; antisense) [ISIS 149005] | 27
